How the values were obtained:
RPS6KA1 KD1 KD2 (human) = RPS6KA1 KD1 KD2 (human) (UniProt Q15418)
STK10 (human) = STK10 (human) (UniProt O94804)
PRKAA1 (human) = PRKAA1 (human) (UniProt Q13131)
DDR1 (human) = DDR1 (human) (UniProt Q08345)
MAP2K6 (human) = MAP2K6 (human) (UniProt P52564)
MAP3K4 (human) = MAP3K4 (human) (UniProt Q9Y6R4)
RPS6KA5 KD1 KD2 (human) = RPS6KA5 KD1 KD2 (human) (UniProt O75582)
MAP2K5 (human) = MAP2K5 (human) (UniProt Q13163)
TYK2 JH1 JH2 (human) = TYK2 JH1 JH2 (human) (UniProt P29597)
TYK2 JH1 JH2 (human), sequence (P29597 whole entry, looked up): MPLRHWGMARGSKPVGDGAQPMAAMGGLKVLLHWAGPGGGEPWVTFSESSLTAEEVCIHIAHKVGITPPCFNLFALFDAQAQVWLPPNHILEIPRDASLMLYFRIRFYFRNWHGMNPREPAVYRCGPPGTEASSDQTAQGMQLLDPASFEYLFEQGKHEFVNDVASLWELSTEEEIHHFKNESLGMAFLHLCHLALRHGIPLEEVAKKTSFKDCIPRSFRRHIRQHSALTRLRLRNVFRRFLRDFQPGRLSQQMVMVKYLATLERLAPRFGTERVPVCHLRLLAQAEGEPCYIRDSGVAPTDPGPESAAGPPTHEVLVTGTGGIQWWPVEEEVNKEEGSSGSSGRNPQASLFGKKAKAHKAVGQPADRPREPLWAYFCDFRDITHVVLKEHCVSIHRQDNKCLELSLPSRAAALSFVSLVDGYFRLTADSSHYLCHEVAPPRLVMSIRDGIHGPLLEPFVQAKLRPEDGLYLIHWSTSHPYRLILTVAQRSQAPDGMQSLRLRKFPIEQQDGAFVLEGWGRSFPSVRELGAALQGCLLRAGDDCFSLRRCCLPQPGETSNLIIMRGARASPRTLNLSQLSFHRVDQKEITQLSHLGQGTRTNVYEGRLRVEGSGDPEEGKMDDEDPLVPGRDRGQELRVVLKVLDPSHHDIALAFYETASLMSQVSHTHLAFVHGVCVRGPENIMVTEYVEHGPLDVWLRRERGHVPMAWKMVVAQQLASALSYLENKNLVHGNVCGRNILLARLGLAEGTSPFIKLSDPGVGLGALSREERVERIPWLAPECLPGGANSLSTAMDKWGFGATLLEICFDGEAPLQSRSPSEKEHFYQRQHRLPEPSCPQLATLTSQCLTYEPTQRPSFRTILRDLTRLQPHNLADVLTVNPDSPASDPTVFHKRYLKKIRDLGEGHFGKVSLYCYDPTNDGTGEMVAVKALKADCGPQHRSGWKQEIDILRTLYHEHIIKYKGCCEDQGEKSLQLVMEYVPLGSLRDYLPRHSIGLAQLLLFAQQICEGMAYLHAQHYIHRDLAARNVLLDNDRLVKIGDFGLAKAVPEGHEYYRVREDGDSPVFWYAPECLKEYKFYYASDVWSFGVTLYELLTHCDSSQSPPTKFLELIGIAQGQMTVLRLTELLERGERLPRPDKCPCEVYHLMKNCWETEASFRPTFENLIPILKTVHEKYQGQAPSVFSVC

ADCK3 (human) = ADCK3 (human) (UniProt Q8NI60)
ADCK3 (human), sequence (Q8NI60 whole entry, looked up): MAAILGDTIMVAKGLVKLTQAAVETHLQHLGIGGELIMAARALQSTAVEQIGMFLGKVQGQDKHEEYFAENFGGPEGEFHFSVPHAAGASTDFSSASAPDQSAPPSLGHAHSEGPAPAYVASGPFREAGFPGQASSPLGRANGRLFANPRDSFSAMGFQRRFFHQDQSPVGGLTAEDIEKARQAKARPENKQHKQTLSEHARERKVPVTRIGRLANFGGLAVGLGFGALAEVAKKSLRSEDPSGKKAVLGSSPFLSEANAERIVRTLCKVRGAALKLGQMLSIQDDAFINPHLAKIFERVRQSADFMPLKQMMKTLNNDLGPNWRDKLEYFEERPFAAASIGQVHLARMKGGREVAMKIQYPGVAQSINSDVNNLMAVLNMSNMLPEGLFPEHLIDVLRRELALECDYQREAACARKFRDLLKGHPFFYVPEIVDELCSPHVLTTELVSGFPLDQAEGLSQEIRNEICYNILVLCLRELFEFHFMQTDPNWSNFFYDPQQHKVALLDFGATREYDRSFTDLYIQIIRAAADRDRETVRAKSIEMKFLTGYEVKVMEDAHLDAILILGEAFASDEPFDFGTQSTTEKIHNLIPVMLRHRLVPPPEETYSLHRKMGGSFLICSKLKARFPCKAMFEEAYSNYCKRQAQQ

JAK2 JH1 JH2 (human) = JAK2 JH1 JH2 (human) (UniProt O60674)
MAP2K1 (human) = MAP2K1 (human) (UniProt Q02750)
MAPK8 (human) = MAPK8 (human) (UniProt P45983)
STK17B (human) = STK17B (human) (UniProt O94768)
FER (human) = FER (human) (UniProt P16591)
PRKD2 (human) = PRKD2 (human) (UniProt Q9BZL6)
STRADA (human) = STRADA (human) (UniProt Q7RTN6)
PAK4 (human) = PAK4 (human) (UniProt O96013)
RPS6KA3 KD1 KD2 (human) = RPS6KA3 KD1 KD2 (human) (UniProt P51812)
ABL2 (human) = ABL2 (human) (UniProt P42684)
TAOK3 (human) = TAOK3 (human) (UniProt Q9H2K8)
TAOK3 (human), sequence (Q9H2K8 whole entry, looked up): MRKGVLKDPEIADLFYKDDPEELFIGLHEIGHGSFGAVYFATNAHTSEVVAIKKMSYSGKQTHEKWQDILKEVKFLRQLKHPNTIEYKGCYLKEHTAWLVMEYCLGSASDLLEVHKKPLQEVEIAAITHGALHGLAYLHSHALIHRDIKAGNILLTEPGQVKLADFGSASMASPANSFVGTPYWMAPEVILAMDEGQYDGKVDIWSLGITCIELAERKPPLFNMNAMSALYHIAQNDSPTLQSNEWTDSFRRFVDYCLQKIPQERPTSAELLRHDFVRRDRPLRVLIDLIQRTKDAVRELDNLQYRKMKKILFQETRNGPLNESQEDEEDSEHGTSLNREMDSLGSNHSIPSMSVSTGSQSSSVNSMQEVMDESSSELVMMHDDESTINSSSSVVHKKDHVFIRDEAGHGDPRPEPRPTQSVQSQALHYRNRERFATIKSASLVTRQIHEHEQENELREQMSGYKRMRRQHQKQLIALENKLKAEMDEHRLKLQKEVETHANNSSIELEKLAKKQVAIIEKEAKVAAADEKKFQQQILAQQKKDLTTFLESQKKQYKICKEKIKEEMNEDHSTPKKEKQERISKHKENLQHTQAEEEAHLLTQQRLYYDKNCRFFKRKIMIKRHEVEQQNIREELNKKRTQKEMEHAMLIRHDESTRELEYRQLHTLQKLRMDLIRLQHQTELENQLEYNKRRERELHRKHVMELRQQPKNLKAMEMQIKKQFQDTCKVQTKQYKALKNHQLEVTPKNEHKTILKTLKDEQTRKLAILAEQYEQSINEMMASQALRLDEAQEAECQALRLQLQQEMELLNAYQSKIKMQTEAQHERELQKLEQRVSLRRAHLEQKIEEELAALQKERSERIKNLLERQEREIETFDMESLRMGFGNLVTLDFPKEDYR

TGFBR2 (human) = TGFBR2 (human) (UniProt P37173)
FYN (human) = FYN (human) (UniProt P06241)
PKN1 (human) = PKN1 (human) (UniProt Q16512)
PKN1 (human), sequence (Q16512 whole entry, looked up): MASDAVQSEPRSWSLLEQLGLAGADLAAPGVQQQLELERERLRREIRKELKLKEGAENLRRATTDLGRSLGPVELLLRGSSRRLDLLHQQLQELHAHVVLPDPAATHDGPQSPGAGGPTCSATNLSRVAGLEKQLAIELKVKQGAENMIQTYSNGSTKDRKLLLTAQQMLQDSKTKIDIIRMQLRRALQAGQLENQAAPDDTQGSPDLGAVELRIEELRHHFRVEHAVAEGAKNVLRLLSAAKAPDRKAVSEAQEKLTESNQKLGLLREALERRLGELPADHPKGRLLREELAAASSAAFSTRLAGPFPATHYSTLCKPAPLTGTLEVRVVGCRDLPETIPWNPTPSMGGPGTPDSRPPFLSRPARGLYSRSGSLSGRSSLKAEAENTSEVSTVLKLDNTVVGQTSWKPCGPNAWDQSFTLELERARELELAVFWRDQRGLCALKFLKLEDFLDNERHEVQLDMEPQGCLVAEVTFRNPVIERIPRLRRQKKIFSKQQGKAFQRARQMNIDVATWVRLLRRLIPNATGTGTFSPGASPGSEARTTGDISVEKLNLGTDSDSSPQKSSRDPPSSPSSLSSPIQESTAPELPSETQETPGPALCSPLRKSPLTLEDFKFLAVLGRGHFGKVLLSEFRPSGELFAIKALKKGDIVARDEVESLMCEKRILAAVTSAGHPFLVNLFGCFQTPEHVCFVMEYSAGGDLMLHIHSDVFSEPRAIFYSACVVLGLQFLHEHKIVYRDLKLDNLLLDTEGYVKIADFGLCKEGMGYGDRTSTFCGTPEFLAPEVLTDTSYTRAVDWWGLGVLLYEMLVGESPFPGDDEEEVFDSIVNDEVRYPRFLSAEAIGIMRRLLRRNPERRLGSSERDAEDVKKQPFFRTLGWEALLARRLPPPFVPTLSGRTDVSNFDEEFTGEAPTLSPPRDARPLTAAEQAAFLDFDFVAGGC

PRKACB (human) = PRKACB (human) (UniProt P22694)
ATM (human) = ATM (human) (UniProt Q13315)
PIK3C2B (human) = PIK3C2B (human) (UniProt O00750)
LRRK2 (human) = LRRK2 (human) (UniProt Q5S007)
PRKCD (human) = PRKCD (human) (UniProt Q05655)
SGK223 (human) = SGK223 (human) (UniProt Q86YV5)
STK4 (human) = STK4 (human) (UniProt Q13043)
MAPK3 (human) = MAPK3 (human) (UniProt P27361)
YES1 (human) = YES1 (human) (UniProt P07947)
CAMK2A (human) = CAMK2A (human) (UniProt Q9UQM7)
CDK14 (human) = CDK14 (human) (UniProt O94921)
LYN (human) = LYN (human) (UniProt P07948)
FGR (human) = FGR (human) (UniProt P09769)
MAPK14 (human) = MAPK14 (human) (UniProt Q16539)
MAP3K1 (human) = MAP3K1 (human) (UniProt Q13233)
CSNK1G3 (human) = CSNK1G3 (human) (UniProt Q9Y6M4)
ITK (human) = ITK (human) (UniProt Q08881)
ITK (human), sequence (Q08881 whole entry, looked up): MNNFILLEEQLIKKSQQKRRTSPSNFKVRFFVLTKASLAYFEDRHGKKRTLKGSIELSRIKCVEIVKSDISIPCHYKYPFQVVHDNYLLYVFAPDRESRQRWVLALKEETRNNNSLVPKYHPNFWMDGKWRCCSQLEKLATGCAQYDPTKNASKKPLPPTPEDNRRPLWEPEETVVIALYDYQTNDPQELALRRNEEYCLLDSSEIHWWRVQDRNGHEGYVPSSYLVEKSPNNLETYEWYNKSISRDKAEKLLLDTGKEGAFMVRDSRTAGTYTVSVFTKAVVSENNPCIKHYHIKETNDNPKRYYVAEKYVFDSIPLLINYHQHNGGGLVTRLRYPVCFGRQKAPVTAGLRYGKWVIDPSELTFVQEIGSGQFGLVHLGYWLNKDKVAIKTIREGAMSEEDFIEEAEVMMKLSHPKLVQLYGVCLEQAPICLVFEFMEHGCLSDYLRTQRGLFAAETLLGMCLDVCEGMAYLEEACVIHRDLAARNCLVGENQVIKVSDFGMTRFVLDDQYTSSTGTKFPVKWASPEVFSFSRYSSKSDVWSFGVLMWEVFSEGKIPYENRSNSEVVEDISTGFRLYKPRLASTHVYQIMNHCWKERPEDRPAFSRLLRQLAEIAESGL

IKBKE (human) = IKBKE (human) (UniProt Q14164)
TEC (human) = TEC (human) (UniProt P42680)

RPS6KA5 KD1 KD2 (human), sequence (O75582 whole entry, looked up): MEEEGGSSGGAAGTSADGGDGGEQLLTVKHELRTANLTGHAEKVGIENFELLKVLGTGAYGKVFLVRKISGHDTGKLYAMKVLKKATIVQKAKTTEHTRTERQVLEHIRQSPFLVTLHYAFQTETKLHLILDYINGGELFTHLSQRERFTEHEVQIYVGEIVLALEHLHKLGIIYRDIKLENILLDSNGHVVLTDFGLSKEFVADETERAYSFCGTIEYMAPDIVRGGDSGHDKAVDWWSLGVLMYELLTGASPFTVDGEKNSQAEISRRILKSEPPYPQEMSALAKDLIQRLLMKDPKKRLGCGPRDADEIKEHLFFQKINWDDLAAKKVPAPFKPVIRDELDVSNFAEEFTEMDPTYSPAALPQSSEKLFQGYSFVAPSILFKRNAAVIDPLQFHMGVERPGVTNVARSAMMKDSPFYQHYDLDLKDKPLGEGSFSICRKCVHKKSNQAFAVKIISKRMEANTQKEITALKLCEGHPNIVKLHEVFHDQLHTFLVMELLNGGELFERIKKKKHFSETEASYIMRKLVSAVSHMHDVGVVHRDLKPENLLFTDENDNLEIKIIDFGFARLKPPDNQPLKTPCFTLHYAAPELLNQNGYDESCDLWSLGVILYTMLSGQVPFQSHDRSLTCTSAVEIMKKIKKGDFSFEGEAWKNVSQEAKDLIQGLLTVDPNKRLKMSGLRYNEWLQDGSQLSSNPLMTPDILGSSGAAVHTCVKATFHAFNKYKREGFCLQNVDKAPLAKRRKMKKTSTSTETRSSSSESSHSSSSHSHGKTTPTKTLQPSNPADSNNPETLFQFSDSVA

## CN1CC[C@H](c2c(O)cc(O)c3c(=O)cc(-c4ccccc4Cl)oc23)[C@H](O)C1
RPS6KA1 KD1 KD2 (human)
  IC50: 8.74 µM
STK10 (human)
  IC50: > 10 µM
PRKAA1 (human)
  IC50: > 10 µM
DDR1 (human)
  IC50: > 10 µM
MAP2K6 (human)
  IC50: > 10 µM
MAP3K4 (human)
  IC50: > 10 µM
RPS6KA5 KD1 KD2 (human)
  IC50: > 10 µM
MAP2K5 (human)
  IC50: 9.71 µM
TYK2 JH1 JH2 (human)
  IC50: 2.48 µM
ADCK3 (human)
  IC50: > 10 µM
JAK2 JH1 JH2 (human)
  IC50: > 10 µM
MAP2K1 (human)
  IC50: > 10 µM
MAPK8 (human)
  IC50: > 10 µM
STK17B (human)
  IC50: > 10 µM
FER (human)
  IC50: > 10 µM
PRKD2 (human)
  IC50: 1.26 µM
STRADA (human)
  IC50: > 10 µM
PAK4 (human)
  IC50: > 10 µM
RPS6KA3 KD1 KD2 (human)
  IC50: > 10 µM
ABL2 (human)
  IC50: > 10 µM
TAOK3 (human)
  IC50: 9.47 µM
TGFBR2 (human)
  IC50: > 10 µM
FYN (human)
  IC50: > 10 µM
PKN1 (human)
  IC50: > 10 µM
PRKACB (human)
  IC50: > 10 µM
ATM (human)
  IC50: > 10 µM
PIK3C2B (human)
  IC50: > 10 µM
LRRK2 (human)
  IC50: 9.63 µM
PRKCD (human)
  IC50: 1.19 µM
SGK223 (human)
  IC50: > 10 µM
STK4 (human)
  IC50: > 10 µM
MAPK3 (human)
  IC50: > 10 µM
YES1 (human)
  IC50: > 10 µM
CAMK2A (human)
  IC50: > 10 µM
CDK14 (human)
  IC50: 2.96 µM
LYN (human)
  IC50: > 10 µM
FGR (human)
  IC50: > 10 µM
MAPK14 (human)
  IC50: > 10 µM
MAP3K1 (human)
  IC50: > 10 µM
CSNK1G3 (human)
  IC50: > 10 µM
ITK (human)
  IC50: > 10 µM
IKBKE (human)
  IC50: > 10 µM
TEC (human)
  IC50: > 10 µM
